Results reported in PubChem BioAssay (NCI).
Several values for one entry are separate records, joined by “and”; a condition that tells them apart may be missing. Equal entries are not always repeated.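 1) Cells in 96-well plates. 2) Compound, 48 h, 5 concentrations. 3) Linear interpolation between surrounding doses. 4) Unreached endpoint = highest concentration. Abbreviation: GI50, concentration required for 50% inhibition of growth. TGI marks complete inhibition of growth.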

Assays:
Assay in all cases: NCI tumour cell line growth inhibition, 48 h
OVCAR-5 ovarian = test system: OVCAR-5 ovarian
OVCAR-4 ovarian = test system: OVCAR-4 ovarian
NCI-H460 lung = test system: NCI-H460 lung
HOP-62 NSCLC = test system: HOP-62 NSCLC
OVCAR-3 ovarian = test system: OVCAR-3 ovarian
NCI-H226 lung = test system: NCI-H226 lung
SK-OV-3 ovarian = test system: SK-OV-3 ovarian
OVCAR-8 ovarian = test system: OVCAR-8 ovarian
SW-620 colon = test system: SW-620 colon
786-0 renal = test system: 786-0 renal

Compound | GI50 (OVCAR-5 ovarian) | TGI (OVCAR-5 ovarian) | GI50 (OVCAR-4 ovarian) | TGI (OVCAR-4 ovarian) | GI50 (NCI-H460 lung) | TGI (NCI-H460 lung) | GI50 (HOP-62 NSCLC) | TGI (HOP-62 NSCLC) | GI50 (OVCAR-3 ovarian) | TGI (OVCAR-3 ovarian) | GI50 (NCI-H226 lung) | TGI (NCI-H226 lung) | GI50 (SK-OV-3 ovarian) | TGI (SK-OV-3 ovarian) | GI50 (OVCAR-8 ovarian) | TGI (OVCAR-8 ovarian) | GI50 (SW-620 colon) | TGI (SW-620 colon) | GI50 (786-0 renal) | TGI (786-0 renal)
CCC[CH2][Sn]([CH2]CCC)([CH2]CCC)/[C](=C/[Si](C)(C)c1ccccc1)c1ccc2c(c1)OCO2 | 19 µM | 44 µM | 14.9 µM | 36.6 µM | 21.3 µM | 52.3 µM | 23.7 µM | 50.6 µM | 19.8 µM | 40.2 µM | 19.9 µM | 42.9 µM | 18.5 µM | 41 µM | 19.1 µM | 37.9 µM | 20.9 µM | 59.3 µM | 16 µM | 30.9 µM
COC(=O)/C(C#N)=C1\CCC(OC)N1C (stereo unspecified) |  | > 100 µM |  | > 100 µM |  | > 100 µM |  | > 100 µM |  | > 100 µM |  | > 100 µM |  | > 100 µM |  | > 100 µM |  | > 100 µM |  | > 100 µM
CCCCNS(=O)(=O)c1ccc(-c2ccc3c(c2)-c2ccc(S(=O)(=O)NCCCC)cc2S3(=O)=O)cc1 |  | > 100 µM |  | 15.4 µM |  | > 100 µM |  | 37.3 µM |  | 76.2 µM |  | 32 µM |  | 45.5 µM |  | 24.9 µM |  | > 100 µM |  | 27.9 µM
O=C1NC(=O)C(c2cccc(Cl)c2)=C1Nc1ccc(Cl)c(C(=O)O)c1 | > 25 µM | > 25 µM | > 25 µM | > 25 µM | > 25 µM | > 25 µM | > 25 µM | > 25 µM | > 25 µM | > 25 µM | > 25 µM | > 25 µM | > 25 µM | > 25 µM | > 25 µM | > 25 µM | > 25 µM | > 25 µM | > 25 µM | > 25 µM
FC(F)c1ncc(-c2ccc(C(F)(F)F)cc2)c(NC2CCCCCC2)n1 | > 10 µM | > 10 µM | > 10 µM | > 10 µM | > 10 µM | > 10 µM | > 10 µM | > 10 µM | > 10 µM | > 10 µM | > 10 µM | > 10 µM | > 10 µM | > 10 µM | > 10 µM | > 10 µM | > 10 µM | > 10 µM | > 10 µM | > 10 µM
CC(C)(C)c1ccc(C2CC(=O)C3=C(C2)Nc2ccccc2N(C(=O)c2ccccc2Cl)C3c2ccc(F)cc2)cc1 (stereo unspecified) | > 100 µM | > 100 µM | > 100 µM | > 100 µM | > 100 µM | > 100 µM | > 100 µM | > 100 µM | > 100 µM | > 100 µM | > 100 µM | > 100 µM | > 100 µM | > 100 µM | > 100 µM | > 100 µM | > 100 µM | > 100 µM | > 100 µM | > 100 µM
CCCC(O)c1cn(-c2cccc(S(=O)(=O)O)c2)nn1 (stereo unspecified) |  | > 100 µM |  | > 100 µM |  | > 100 µM |  | > 100 µM |  | > 100 µM |  | > 100 µM |  | > 100 µM |  | > 100 µM |  | > 100 µM |  | > 100 µM
COc1ccc(C2NN=C3c4ccccc4CCC32)cc1 (stereo unspecified) | 18.4 µM | > 100 µM | 3.31 µM | 24.6 µM | 4.86 µM | 71.3 µM | 95.3 µM | > 100 µM | 3.38 µM | 14.9 µM | > 100 µM | > 100 µM | 20.4 µM | > 100 µM | 22.1 µM | > 100 µM | 9.19 µM | > 100 µM | 53.1 µM | > 100 µM
COc1cc(F)c(F)cc1C(=O)c1cnc(NC2CCN(S(C)(=O)=O)CC2)nc1N | 2.62 µM | > 23.1 µM | 6.4 µM | > 25 µM | 1.16 µM | 24.3 µM | 6.17 µM | > 22.2 µM | 4.48 µM | 15.7 µM | 3.1 µM | 22 µM | 10 µM | > 25 µM | 4.43 µM | > 25 µM | 1.27 µM | 24.8 µM | 5.93 µM | > 25 µM
CN(C)C=N[C@@H](C(=O)O)c1ccccc1 |  | > 100 µM |  | > 100 µM |  | > 100 µM |  | > 100 µM |  | > 100 µM |  | > 100 µM |  | > 100 µM |  | > 100 µM |  | > 100 µM |  | > 100 µM
Nc1c(C(=O)c2cccc(C(O)CO)c2)cnn1-c1ccc(F)cc1 (stereo unspecified) | > 25 µM | > 25 µM | > 25 µM | > 25 µM | > 25 µM | > 25 µM | > 25 µM | > 25 µM | > 25 µM | > 25 µM | > 25 µM | > 25 µM | > 25 µM | > 25 µM | > 25 µM | > 25 µM | > 25 µM | > 25 µM | > 25 µM | > 25 µM
Cc1nn(C)c2ncnc(N/N=C/c3cccc(O)c3O)c12 | 4.06 µM | > 100 µM | 0.378 µM | 23.4 µM | 0.431 µM | > 39.7 µM | 1.08 µM | 15.1 µM | 0.356 µM | > 100 µM | 3.69 µM | > 49.2 µM | 2.24 µM | > 81 µM | 0.413 µM | > 100 µM | 0.48 µM | > 100 µM | 1.22 µM | 11.7 µM
CCN1CCN(c2cc(C(=O)Nc3cccc(Nc4ccc5c(OC)cccc5n4)c3)cc(C(F)(F)F)c2)CC1 | 2.78 µM | 7.84 µM | 1.57 µM | 9.32 µM | 1.34 µM | 5.32 µM | 1.02 µM | 4.04 µM | 3.41 µM | 9.04 µM | 2.85 µM | 25.4 µM | 4.6 µM | 11 µM | 1.97 µM | 7.64 µM | 3.67 µM | 8.77 µM | 3.73 µM | 7.84 µM
COc1cc(Cl)c(CC(=O)c2c[nH]c3ccccc23)cc1OC |  | > 100 µM |  | > 100 µM |  | > 100 µM |  | 28.7 µM |  | > 100 µM |  | 45.1 µM |  | 40 µM |  | > 100 µM |  | > 100 µM |  | > 100 µM
COC1=C(OC)C(=O)C(C/C=C(\C)CC/C=C(\C)CC/C=C(\C)CC/C=C(\C)CC/C=C(\C)CC/C=C(\C)CC/C=C(\C)CC/C=C(\C)CC/C=C(\C)CCC=C(C)C)=C(C)C1=O | > 100 µM | > 100 µM | > 100 µM | > 100 µM | > 100 µM | > 100 µM | > 100 µM | > 100 µM | > 100 µM | > 100 µM | > 100 µM | > 100 µM | > 100 µM | > 100 µM | > 100 µM | > 100 µM | > 100 µM | > 100 µM | > 100 µM | > 100 µM
O=c1cc(-c2ccccc2)[nH]c2c1CCCC2 | 14.8 µM | > 100 µM | 9.08 µM | > 100 µM | 3.01 µM | > 100 µM | 4.51 µM | > 100 µM | 1.81 µM | 5.02 µM | 3.08 µM | 65.6 µM | 5.11 µM | > 100 µM | 4.58 µM | > 100 µM | 1.64 µM | > 100 µM | 14.7 µM | > 100 µM
CS(=O)(=O)c1ccc(COP(N)(=O)N(CCCl)CCCl)cc1 (stereo unspecified) |  | > 100 µM |  | > 100 µM |  | > 100 µM |  | > 100 µM |  | > 100 µM |  | > 100 µM |  | > 100 µM |  | > 100 µM |  | > 100 µM |  | > 100 µM
NC1=NC(SCc2ccccc2CCl)c2ncn(Cc3ccccc3CCl)c2N1 (stereo unspecified) | 2.7 µM | 9.88 µM | 2.83 µM | 10.2 µM | 2.53 µM | 6.69 µM | 1.53 µM | 3.16 µM | 1.32 µM | 2.99 µM | 1.9 µM | 4.7 µM | 3.87 µM | 13.9 µM | 2.01 µM | 5.09 µM | 1.54 µM | 3.57 µM | 1.85 µM | 3.97 µM
CC1=C(CO)C(=O)O[C@@H]([C@@H](C)[C@H]2CC[C@H]3[C@@H]4C[C@H]5O[C@]56[C@@H](O)C=CC(=O)[C@]6(C)[C@H]4CC[C@]23C)C1 |  | 2.64 µM |  | 1.8 µM |  | 5.11 µM |  | 2.48 µM |  | 0.792 µM |  | 2.86 µM | 3.93 µM | 13.8 µM |  | 1.76 µM |  | 0.603 µM |  | 1.73 µM
Cc1ccc(SSCC(O)C(O)CSSc2ccc(C)cc2)cc1 (stereo unspecified) |  | 30.2 µM and 38.4 µM |  | 26.8 µM and 28.5 µM |  | 32.2 µM and 36.3 µM | 12.5 µM and 3.81 µM | 26.6 µM and 9.98 µM | 6.31 µM and 13.9 µM | 18.4 µM and 27 µM |  | 30.4 µM and 29 µM | 10.8 µM and 22.8 µM | 23.7 µM and 43.6 µM | 4.21 µM and 17.4 µM | 14.6 µM and 31.2 µM |  | 20.2 µM and 27.2 µM | 5.15 µM and 12.4 µM | 17.5 µM and 24.9 µM
CN1CCN=C1c1nnn(-c2ccc([N+](=O)[O-])cc2)c1-c1ccccc1 |  | > 100 µM |  | > 100 µM |  | > 100 µM |  | > 100 µM |  | > 100 µM |  | > 100 µM |  | > 100 µM |  | > 100 µM |  | > 100 µM |  | > 100 µM
O=C1CC(C2(O)C(=O)Nc3ccc([N+](=O)[O-])cc32)c2ccccc21 (stereo unspecified) |  | > 100 µM |  | 88.1 µM |  | 29.9 µM |  | > 100 µM |  | 67.7 µM |  | 92.7 µM |  | > 100 µM |  | > 100 µM |  | 81.6 µM |  | 36.6 µM
